Laboratory results reported in ChEMBL document CHEMBL1138005, “Carbonic anhydrase inhibitors: synthesis and inhibition of cytosolic/tumor-associated carbonic anhydrase isozymes I, II, and IX with sulfonamides incorporating 1,2,4-triazine moieties” (Bioorg Med Chem Lett, 2004).

How the values were obtained:
Carbonic anhydrase 2 = Carbonic anhydrase 2 (Homo sapiens, UniProt P00918)
Carbonic anhydrase 1 = Carbonic anhydrase 1 (Homo sapiens, UniProt P00915)
Carbonic anhydrase 9 = Carbonic anhydrase 9 (Homo sapiens, UniProt Q16790)

Carbonic anhydrase 1, sequence (P00915 whole entry): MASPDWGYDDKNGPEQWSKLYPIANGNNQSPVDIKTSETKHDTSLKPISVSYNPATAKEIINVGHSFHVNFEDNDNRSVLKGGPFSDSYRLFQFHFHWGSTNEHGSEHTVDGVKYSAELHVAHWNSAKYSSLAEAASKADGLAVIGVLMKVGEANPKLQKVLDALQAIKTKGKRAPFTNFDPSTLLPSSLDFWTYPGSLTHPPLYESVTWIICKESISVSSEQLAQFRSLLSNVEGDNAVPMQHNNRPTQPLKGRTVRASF

Row | Structure (SMILES) | Ki (Carbonic anhydrase 2) [nM] | Ki (Carbonic anhydrase 1) [nM] | Ki (Carbonic anhydrase 9) [nM]
1 | NS(=O)(=O)c1ccc(Nc2nc(=O)[nH]c(=O)[nH]2)cc1 | 278 | 103 | 142
2 | CCOc1nc(NCc2ccc(S(N)(=O)=O)cc2)nc(OCC)n1 | 84 | 110 | 0.34
3 | CNc1nc(NC)nc(NCCc2ccc(S(N)(=O)=O)cc2)n1 | 27 | 88 | 1.1
4 | COc1nc(NCCc2ccc(S(N)(=O)=O)cc2)nc(OC)n1 | 21 |  | 162
5 | NS(=O)(=O)c1ccc(CNc2nc(=O)[nH]c(=O)[nH]2)cc1 | 130 | 94 | 360
6 | COc1nc(NCc2ccc(S(N)(=O)=O)cc2)nc(OC)n1 | 112 | 116 | 155
7 | CNc1nc(NC)nc(NCc2ccc(S(N)(=O)=O)cc2)n1 | 15 | 90 | 1.3
8 | CNc1nc(NC)nc(Nc2ccc(S(N)(=O)=O)cc2)n1 |  | 83 | 
9 | NS(=O)(=O)c1ccc(CCNc2nc(Cl)nc(Cl)n2)cc1 | 21 | 75 | 138
10 | NS(=O)(=O)c1ccc(CCNc2nc(=O)[nH]c(=O)[nH]2)cc1 | 98 | 96 | 549
11 | CCOc1nc(Nc2ccc(S(N)(=O)=O)cc2)nc(OCC)n1 | 20 | 78 | 0.12
12 | COc1nc(Nc2ccc(S(N)(=O)=O)cc2)nc(OC)n1 | 36 | 85 | 150
13 | NS(=O)(=O)c1ccc(Nc2nc(Cl)nc(Cl)n2)cc1 |  |  | 0.15
14 | CCOc1nc(NCCc2ccc(S(N)(=O)=O)cc2)nc(OCC)n1 | 23 | 82 | 
